# Laboratory results as given in PMC11679033, “Assessing the Potential Synergistic/Antagonistic Effects of Citrinin and Cannabidiol on SH-SY5Y, HepG2, HEK293 Cell Lines, and Human Lymphocytes” (Toxins, 2024).
# Marks after values point to notes of the source that are not given here.
# Columns and labels:
# [1] = test system: human peripheral blood lymphocytes; test: Alkaline comet assay; format: cell-based; details: 24 h; CIT 30 µM, CBD 1 µM, bleomycin 1.25 µg/mL
# Description: (§1) The experimental design included the establishment of lymphocyte cultures, and the 24 h treatments with the test compounds, performed according to the last OECD recommendations, given in the Test Guideline No. 487—In Vitro Mammalian Cell Micronucleus Test.
# (§2) The selection of specific concentrations of test compounds adhered to the guidelines for in vitro genotoxicity testing using comet assay. […] Solutions used in testing were prepared just prior to treatment by dissolving the test compounds in ethanol (Kemika, Zagreb, Croatia).
# (§3) Two independent trials, with six experimental groups each, were conducted. A total of six replicate cultures for every single experimental group were established. This step was carried out as follows: aliquots of heparinized blood (V = 600 μL per culture) were pipetted into a growth medium RPMI-1640 (Gibco, Grand Island, NY, USA) supplemented with 10% fetal calf serum (Gibco, Grand Island, NY, USA) and antibiotics (penicillin and streptomycin; Sigma-Aldrich, Steinheim, Germany). Lymphocytes were stimulated with a mitogen phytohemagglutinin (Remel, Lenexa, KS, USA) in order to induce cell division prior to exposure to the test chemicals. Cultures were maintained in the humidified atmosphere of 5% CO2 at 37 °C (Heraeus Hera Cell 240 incubator; Langenselbold, Germany).
# (§4) Negative controls (NCs) were non-treated lymphocytes. Solvent controls (SCs) were lymphocytes treated with ethanol (its final concentration in the culture corresponded to 0.03%). Positive controls (PCs) were lymphocytes treated for 24 h with bleomycin at 1.25 µg/mL (according to [69]). The other three groups were lymphocytes exposed to single CIT, single CBD, and their combination (CIT + CBD, at the same concentrations).
# (§5) Treatments with test compounds started 20 h after the initial establishment of the cell cultures and lasted for 24 h. Upon completion of the exposure, aliquots of 100 µL of the treated cultures were pipetted in sterile conditions and used to prepare microgels for the alkaline comet assay. The remaining content of flasks was further processed using Cytokinesis-Block Micronucleus Cytome (CBMN Cyt) Assay.
# [2] = test system: human peripheral blood lymphocytes; test: Cytokinesis-Block Micronucleus Cytome (CBMN Cyt) Assay; details: 24 h, citrinin 30 µM, CBD 1 µM, bleomycin 1.25 µg/mL
# Description: as §1, §2, §3, §4, §5
# CBMN Cyt Assay was performed according to standard protocols proposed for micronucleus assay. Upon completion of the exposure, lymphocyte cultures were subjected to centrifugation at 100× g using a benchtop centrifuge (ROTOFIX 32A, Hettich, Tuttlingen, Germany). During this process, cells settled to the bottom of the tube. The growth medium with tested compounds was removed by pipetting, discarded and replaced with a fresh amount of complete growth medium RPMI-1640 that contained Cytochalasin B (cytoB; Sigma-Aldrich, Steinheim, Germany) at a final concentration of 6 µg/mL. This procedure was timed to the 44th hour of lymphocyte cultivation, as that time is a critical point for the addition of cytoB to inhibit cytokinesis and obtain binucleated cells. All treated and control cultures were further maintained in the previously described conditions at 37 °C until the end of the 72nd hour of cultivation, as proposed by protocols. Then, the preparation of microscopic slides started, which included harvesting of cells by centrifugation (100× g, ROTOFIX 32A centrifuge, Hettich, Tuttlingen, Germany), followed by hypotonic treatment (0.075 mol/L KCl; Kemika, Zagreb, Croatia), and a new round of centrifugation. The resulting sediments of cells were fixed in several repeating stages with methanol–acetic acid (3:1 v/v; both obtained from Kemika, Zagreb, Croatia) followed by centrifugation. The final lymphocyte suspension was dropped onto clean microscope slides.
# [3] = test system: human peripheral blood lymphocytes; test: Lymphocyte proliferation / cytotoxicity (CBPI, RI); format: cell-based; details: 24 h, citrinin 7.50 µg/mL, CBD 3.15 µg/mL, bleomycin 1.25 µg/mL
# Excerpt: On the same slides, parameters of cell proliferation, cytostasis and cytotoxicity were studied, according to recommendations by OECD 2023 [67]. For that purpose, the numbers of mono-, bi-, tri-, and quadrinuclear cells (i.e., M1, M2, M3, M4) were scored at 400× magnification using a light microscope (Leitz, Oberkochen, Germany). The total number of M1 to M4 cells counted per experimental group was 3000 (i.e., 6 × 500 cells).
# Based on the scored ratios of M1 to M4 cells, the Cytokinesis-Block Proliferation Index (CBPI) was calculated, using the formula: CBPI = [(No. of mononucleated cells) + (2 × No. of binucleated cells) + (3 × No. of multinucleated cells)]/(Total number of cells).
# To establish the relative number of cell cycles per cell during the period of exposure to cytoB in treated compared to control cultures, the Replication Index (RI) was also calculated according to the formula:RI = {[(<No. binucleated cells> + <2 × No. multinucleated cells>)/(Total number of cells in treated culture)]/[(<No. binucleated cells> + <2 × No. multinucleated cells>) […] (Total number of cells in control culture)]} × 100
# Finally, from the obtained values of RI, the cytotoxicity estimate was deduced, as % Cytotoxicity = […].
substance,measurement,setting,value
bleomycin [Positive Control],"tail intensity, mean value ± SE",[1],14.81 ± 0.59%
same,Distribution of BNMN Cells with 1 MN,[2]; in 6000 BN cells,"99 ^a,b,c,d,e"
same,Distribution of BNMN Cells with 2 MNi,[2]; in 6000 BN cells,"20 ^a,b,c,d,e"
same,Distribution of BNMN Cells with 3 MNi,[2]; in 6000 BN cells,3
same,Distribution of BNNB Cells with 1 NB,[2]; in 6000 BN cells,"85 ^a,b,c,d,e"
same,Distribution of BNNB Cells with 2 NBs,[2]; in 6000 BN cells,"12 ^a,b,c,d,e"
same,Micronuclei (MNi) and BNMN Cells: Total (BNNB)6000,[2]; in 6000 BN cells,"122 ^a,b,c,d,e"
same,Micronuclei (MNi) and BNMN Cells: Total (MNi)6000,[2]; in 6000 BN cells,"148 ^a,b,c,d,e"
same,Nuclear Buds (NBs) and BNNB Cells: Total (BNNB)6000,[2]; in 6000 BN cells,"97 ^a,b,c,d,e"
same,Nuclear Buds (NBs) and BNNB Cells: Total (NBs)6000,[2]; in 6000 BN cells,"109 ^a,b,c,d,e"
same,Nucleoplasmic Bridges (NPBs) and BNNPB Cells: Total (BNNPB)6000,[2]; in 6000 BN cells,"9 ^a,b,c,d,e"
same,Nucleoplasmic Bridges (NPBs) and BNNPB Cells: Total (NPBs)6000,[2]; in 6000 BN cells,"9 ^a,b,c,d,e"
same,Cell Death: Total (Apoptosis)6000,[2]; in 6000 cells,"94 ^a,b,c,d,e"
same,Cell Death: Total (Necrosis)6000,[2]; in 6000 cells,"71 ^a,b,c,d,e"
same,Micronuclei (MNi) and BNMN Cells: Mean (BNMN)1000 ± SD,[2]; per 1000 BN cells,"20.3 ± 2.9 ^a,b,c,d,e"
same,Micronuclei (MNi) and BNMN Cells: Mean (MNi)1000 ± SD,[2]; per 1000 BN cells,"24.7 ± 2.5 ^a,b,c,d,e"
same,Nuclear Buds (NBs) and BNNB Cells: Mean (BNNB)1000 ± SD,[2]; per 1000 BN cells,"16.2 ± 5.0 ^a,b,c,d,e"
same,Nuclear Buds (NBs) and BNNB Cells: Mean (NBs)1000 ± SD,[2]; per 1000 BN cells,"18.2 ± 6.5 ^a,b,c,d,e"
same,Nucleoplasmic Bridges (NPBs) and BNNPB Cells: Mean (BNNPB)1000 ± SD,[2]; per 1000 BN cells,"1.5 ± 0.8 ^a,b,c,d,e"
same,Nucleoplasmic Bridges (NPBs) and BNNPB Cells: Mean (NPBs)1000 ± SD,[2]; per 1000 BN cells,"1.5 ± 0.8 ^a,b,c,d,e"
same,Cell Death: Mean (Apoptosis)1000 ± SD,[2]; per 1000 cells,"15.7 ± 5.6 ^a,b,c,d,e"
same,Cell Death: Mean (Necrosis)1000 ± SD,[2]; per 1000 cells,"11.8 ± 3.6 ^a,b,c,d,e"
same,Cytokinesis-Block Proliferation Index,[3]; 3000 cells scored,"1.60^↓nc, sc, cit, cbd,&"
same,Cytotoxicity (%),[3]; deduced from RI,41.25%
same,Replication Index (%),[3]; relative to negative control,58.75%
